Where a SMILES comes first, the peptide text is derived from it. Where no end group is shown, it is not given here.

Experiment [1] concerns the target T1, Notch2Long (Notch2 EGF6-EGF12) (Homo sapiens, UniProt Q04721).
T1 construct: Biotinylated N2L protein (D219–E418, made in-house); His tag (cleaved yes); made in house; host or cells: CHO
T1 sequence (Q04721 219-418): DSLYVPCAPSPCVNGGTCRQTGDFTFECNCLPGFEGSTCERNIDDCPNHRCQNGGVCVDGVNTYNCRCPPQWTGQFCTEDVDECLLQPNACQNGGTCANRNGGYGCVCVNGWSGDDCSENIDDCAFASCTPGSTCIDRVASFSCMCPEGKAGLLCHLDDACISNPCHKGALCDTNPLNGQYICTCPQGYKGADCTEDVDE
In words: SPR binding of synthetic DCPs to Notch2Long. As to conditions: Biacore S200, 25°C, 50 μL/min; synthetic in vitro folded peptide, 3-fold dilution from 100 μM; biotinylated N2L on chip SA; steady state fitting; at least three independent experiments; n/d = no binding. The protocol: (§1) All binding experiments were performed using a Biacore S200 instrument (GE Healthcare) at 25°C at a flow rate of 50 μL/min. The kinetics and affinity measurements were carried out using either single-cycle or multi-cycle kinetics (SCK or MCK), solvent corrected and referenced by subtracting the signal to the blank flow cell. Binding affinity and kinetic parameters (association and dissociation rate constants, and dissociation equilibrium constant) were calculated with the Biacore S200 Evaluation Software (version 1.1.1, Cytiva) using either a 1:1 binding model or a steady-state equilibrium model (according to the manufacturer’s instructions).
(§2) Biotinylated N2L protein (D219–E418, made in-house) and NRR protein (A1423–Q1677, made in-house) were captured at around 500, 1000 and 1500 RU on Sensor Chip SA (Cytiva).
Background: In SPR one partner is held on a chip, and binding of the other changes the refractive index at the surface.

The subject of a further experiment is BamA-amphipol. Put plainly: Spot phage ELISA, BamA-amphipol. Type of experiment: binding, bacterial.
In a further experiment the test system is Notch2NRR. In words: Spot phage ELISA, Notch2NRR. Type of experiment: binding, human. To be noted: ratio of signal for target protein over BSA background. A general note: ELISA stands for enzyme-linked immunosorbent assay.
For experiment [2], the target named is T2, Notch2NRR (Notch2 NRR domain) (Homo sapiens, UniProt Q04721).
T2 construct: NRR protein (A1423–Q1677, made in-house); His tag (cleaved yes); made in house; host or cells: CHO
T2 sequence (Q04721 1423-1677): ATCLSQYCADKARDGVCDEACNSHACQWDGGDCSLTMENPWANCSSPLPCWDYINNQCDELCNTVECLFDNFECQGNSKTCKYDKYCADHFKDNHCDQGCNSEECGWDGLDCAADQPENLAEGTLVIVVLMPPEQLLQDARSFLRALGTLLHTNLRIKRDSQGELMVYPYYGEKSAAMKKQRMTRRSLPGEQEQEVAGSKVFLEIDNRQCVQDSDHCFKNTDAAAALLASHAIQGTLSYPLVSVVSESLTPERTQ
Put plainly: SPR binding of synthetic DCPs to Notch2NRR. To be noted: Biacore S200, 25°C; synthetic folded peptide, 3-fold dilution from 100 μM; biotinylated NRR on chip SA; steady state fitting. The protocol: as §1, §2

Usually Kd stands for the free concentration of one partner at which half of the binding sites on the other are occupied at equilibrium, for simple one-to-one binding. `CC[C@H](C)[C@@H]1NC(=O)[C@@H](NC(=O)CN)CSSC[C@@H]2NC(=O)CNC(=O)[C@H](C)NC(=O)[C@H](CCC(=O)O)NC(=O)[C@@H]3CSSC[C@@H](C(=O)NCC(=O)O)NC(=O)[C@H](CCC(N)=O)NC(=O)[C@H]([C@@H](C)CC)NC(=O)[C@H](Cc4c[nH]c5ccccc45)NC(=O)[C@H](C(C)C)NC(=O)[C@H](CCC(=O)O)NC(=O)[C@H](CSSC[C@H](NC(=O)[C@H](Cc4c[nH]c5ccccc45)NC(=O)[C@H](CC(C)C)NC(=O)[C@H](Cc4c[nH]cn4)NC(=O)[C@H](CO)NC(=O)[C@H](CCCCN)NC1=O)C(=O)N1CCC[C@H]1C(=O)N[C@@H](CCCCN)C(=O)N[C@@H]([C@@H](C)O)C(=O)N[C@@H](CO)C(=O)N[C@@H](CC(=O)O)C(=O)N3)NC(=O)[C@H]([C@@H](C)CC)NC2=O` [N2L.EET31.43.24] (HELM PEPTIDE1{G.C.I.K.S.H.L.W.C.P.K.T.S.D.C.E.A.G.C.I.C.E.V.W.I.Q.C.G}$PEPTIDE1,PEPTIDE1,2:R3-19:R3|PEPTIDE1,PEPTIDE1,9:R3-21:R3|PEPTIDE1,PEPTIDE1,15:R3-27:R3$$$V2.0) showed a Kd in experiment [1] of 3.5 µM. That is a single-digit micromolar value.
On the same count and under the same terms, in the case of `CC[C@H](C)[C@@H]1NC(=O)[C@@H](NC(=O)CN)CSSC[C@@H]2NC(=O)CNC(=O)[C@H](C)NC(=O)[C@H](CCC(=O)O)NC(=O)[C@@H]3CSSC[C@@H](C(=O)NCC(=O)O)NC(=O)[C@H](CCC(N)=O)NC(=O)[C@H]([C@@H](C)CC)NC(=O)[C@H](Cc4c[nH]c5ccccc45)NC(=O)[C@H]([C@@H](C)CC)NC(=O)[C@H](CCC(=O)O)NC(=O)[C@H](CSSC[C@H](NC(=O)[C@H](Cc4c[nH]c5ccccc45)NC(=O)[C@H](C(C)C)NC(=O)[C@H](Cc4c[nH]cn4)NC(=O)[C@H](CO)NC(=O)[C@H](CCCNC(=N)N)NC1=O)C(=O)N[C@@H](CCCCN)C(=O)N[C@@H](CCC(N)=O)C(=O)N[C@@H](CC(=O)O)C(=O)N[C@@H](CO)C(=O)N[C@@H](CC(=O)O)C(=O)N3)NC(=O)[C@H]([C@@H](C)CC)NC2=O` [N2L.EET31.43.43] (HELM PEPTIDE1{G.C.I.R.S.H.V.W.C.K.Q.D.S.D.C.E.A.G.C.I.C.E.I.W.I.Q.C.G}$PEPTIDE1,PEPTIDE1,2:R3-19:R3|PEPTIDE1,PEPTIDE1,9:R3-21:R3|PEPTIDE1,PEPTIDE1,15:R3-27:R3$$$V2.0) it was 3.5 µM.
Regarding “GCTMWQRLQAKYCKQDSDCLAGCVCHAREKCG (also: bicyclic or more (positions not given here)) [BamA-amphipol EET I-II 1]”, the S/N in the experiment with BamA-amphipol (ratio of signal for target protein over BSA background) amounted to 8.1. The ELISA with BamA-amphipol (spot phage ELISA signal, DCP displayed on M13 p8) was 1.50.
For `CC(C)C[C@@H]1NC(=O)[C@@H](NC(=O)[C@H](CC(=O)O)NC(=O)[C@H](Cc2ccccc2)NC(=O)[C@H](C)N)CSSC[C@@H]2NC(=O)[C@H](CCC(N)=O)NC(=O)[C@H](CC(C)C)NC(=O)[C@H](CCCCN)NC(=O)[C@H](Cc3c[nH]cn3)NC(=O)[C@H](Cc3ccccc3)NC(=O)[C@H](CC(=O)O)NC(=O)[C@@H]3CSSC[C@@H](C(=O)N[C@H](C(=O)N[C@@H](CCCNC(=N)N)C(=O)O)[C@@H](C)O)NC(=O)[C@H](CO)NC(=O)[C@H](CO)NC(=O)[C@H](CC(N)=O)NC(=O)[C@H](CSSC[C@H](NC(=O)[C@H](CCC(N)=O)NC(=O)CNC1=O)C(=O)NCC(=O)N[C@@H](CCCNC(=N)N)C(=O)N3)NC(=O)[C@H](Cc1ccc(O)cc1)NC(=O)[C@H](CCC(N)=O)NC(=O)[C@H](CCCCN)NC(=O)[C@H](Cc1ccc(O)cc1)NC(=O)[C@H]([C@@H](C)O)NC(=O)[C@H](Cc1c[nH]c3ccccc13)NC(=O)[C@H](CO)NC(=O)[C@H](Cc1ccc(O)cc1)NC(=O)[C@@H]1CCCN1C(=O)[C@H](C(C)C)NC2=O` [N2N-AVR-19] (HELM PEPTIDE1{A.F.D.C.L.G.Q.C.G.R.C.D.F.H.K.L.Q.C.V.P.Y.S.W.T.Y.K.Q.Y.C.N.S.S.C.T.R}$PEPTIDE1,PEPTIDE1,4:R3-18:R3|PEPTIDE1,PEPTIDE1,8:R3-29:R3|PEPTIDE1,PEPTIDE1,11:R3-33:R3$$$V2.0; N-terminus and C-terminus assumed), the s/n ratio with Notch2NRR amounted to 35.7. The compound also came in with a Kd in experiment [2] of 9.4 µM.
The like results for `CC(C)C[C@@H]1NC(=O)[C@@H](NC(=O)[C@H](CC(=O)O)NC(=O)[C@H](Cc2ccccc2)NC(=O)[C@H](C)N)CSSC[C@@H]2NC(=O)[C@H](CCC(N)=O)NC(=O)[C@H](CC(C)C)NC(=O)[C@H](CCCCN)NC(=O)[C@H](Cc3c[nH]cn3)NC(=O)[C@H](Cc3ccccc3)NC(=O)[C@H](CC(=O)O)NC(=O)[C@@H]3CSSC[C@@H](C(=O)N[C@H](C(=O)N[C@@H](CCCNC(=N)N)C(=O)O)[C@@H](C)O)NC(=O)[C@H](CO)NC(=O)[C@H](CO)NC(=O)[C@H](CC(N)=O)NC(=O)[C@H](CSSC[C@H](NC(=O)[C@H](CCC(N)=O)NC(=O)CNC1=O)C(=O)NCC(=O)N[C@@H](CCCNC(=N)N)C(=O)N3)NC(=O)[C@H](Cc1ccc(O)cc1)NC(=O)[C@@H]1CCCN1C(=O)[C@H](CO)NC(=O)[C@H](Cc1c[nH]cn1)NC(=O)[C@H](CCCNC(=N)N)NC(=O)[C@H](CC(N)=O)NC(=O)[C@H](CO)NC(=O)[C@H](Cc1c[nH]c3ccccc13)NC(=O)[C@H](C(C)C)NC2=O` [N2N-AVR-n6] (HELM PEPTIDE1{A.F.D.C.L.G.Q.C.G.R.C.D.F.H.K.L.Q.C.V.W.S.N.R.H.S.P.Y.C.N.S.S.C.T.R}$PEPTIDE1,PEPTIDE1,4:R3-18:R3|PEPTIDE1,PEPTIDE1,8:R3-28:R3|PEPTIDE1,PEPTIDE1,11:R3-32:R3$$$V2.0; N-terminus and C-terminus assumed) were, in that order, 39.3 and 0.8 µM.

For the origin of these results see PMC10977697 (PLOS ONE, 2024).
